# Source: patent publication US10750743B2, “Pyridazinone herbicides” (E.I. DU PONT DE NEMOURS AND COMPANY, priority 2015, dated 2020)
# How the values were obtained:
# Type in all cases: in vivo
# [1] = system: rice (Oryza sativa); assay: Test B flooded paddy test, visual rating; conditions: Oryza sativa, 360 h; Flood, 250 g ai/ha, applied to paddy water, rated after 13 to 15 d; read-out: Rice plant response rating (0 to 100 scale, 0 is no effect, 100 is complete control)
# Summary of the method: (§1)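 Plants grown to the 2-leaf stage. At treatment, pots were flooded to 3 cm above the soil, compound was applied directly to the paddy water, and that depth was held throughout. After 13 to 15 d in the greenhouse, response was rated visually against controls on a 0 (no effect) to 100 (complete control) scale.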
# [2] = system: ducksalad (Heteranthera limosa); assay: Test B flooded paddy test, visual rating; conditions: Heteranthera limosa, 360 h; Flood, 250 g ai/ha, applied to paddy water, rated after 13 to 15 d; read-out: Ducksalad plant response rating (0 to 100 scale, 0 is no effect, 100 is complete control)
# Summary of the method: as §1
# [3] = system: barnyardgrass (Echinochloa crus-galli); assay: Test B flooded paddy test, visual rating; conditions: Echinochloa crus-galli, 360 h; Flood, 250 g ai/ha, applied to paddy water, rated after 13 to 15 d; read-out: Barnyardgrass plant response rating (0 to 100 scale, 0 is no effect, 100 is complete control)
# Summary of the method: as §1
# [4] = system: sedge, umbrella (small-flower umbrella sedge, Cyperus difformis); assay: Test B flooded paddy test, visual rating; conditions: Cyperus difformis, 360 h; Flood, 250 g ai/ha, applied to paddy water, rated after 13 to 15 d; read-out: Sedge, Umbrella plant response rating (0 to 100 scale, 0 is no effect, 100 is complete control)
# Summary of the method: as §1
# [5] = system: corn (Zea mays); assay: Test A postemergence application, visual injury rating; conditions: for Plant response rating (0 to 100 scale), Corn: 31 g ai/ha, 0 is no effect, 100 is complete control; for plant injury at 125 g/ha: Zea mays, post-emergence, 240 h, 125 g ai/ha, 0 to 100 scale, 0 no effect, 100 complete control, read-out: Corn plant response rating
# Summary of the method: (§2)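 Compounds in a surfactant-containing solvent were applied as a directed soil spray preemergence, or postemergence to plants 2-10 cm tall at the one- to two-leaf stage, in loam-sand blend. After about 10 d in the greenhouse, injury was rated visually against untreated controls on a 0-100 scale (100 = complete control).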
# [6] = system: pigweed (Amaranthus retroflexus); assay: as above; conditions: for Plant response rating (0 to 100 scale), Pigweed: 31 g ai/ha, 0 is no effect, 100 is complete control; for pest or weed control at 125 g/ha: Amaranthus retroflexus, post-emergence, 240 h, 125 g ai/ha, 0 to 100 scale, 0 no effect, 100 complete control, read-out: Pigweed plant response rating
# Summary of the method: as §2
# [7] = system: ragweed (common ragweed, Ambrosia elatior); assay: as above; conditions: for Plant response rating (0 to 100 scale), Ragweed: 31 g ai/ha, 0 is no effect, 100 is complete control; for pest or weed control at 125 g/ha: Ambrosia artemisiifolia, post-emergence, 240 h, 125 g ai/ha, 0 to 100 scale, 0 no effect, 100 complete control, read-out: Ragweed plant response rating
# Summary of the method: as §2
# [8] = system: kochia (Kochia scoparia); assay: as above; conditions: for Plant response rating (0 to 100 scale), Kochia: 31 g ai/ha, 0 is no effect, 100 is complete control; for pest or weed control at 125 g/ha: Bassia scoparia, post-emergence, 240 h, 125 g ai/ha, 0 to 100 scale, 0 no effect, 100 complete control, read-out: Kochia plant response rating
# Summary of the method: as §2
# [9] = system: foxtail, giant (giant foxtail, Setaria faberii); assay: as above; conditions: for Plant response rating (0 to 100 scale), Foxtail, Giant: 31 g ai/ha, 0 is no effect, 100 is complete control; for pest or weed control at 125 g/ha: Setaria faberi, post-emergence, 240 h, 125 g ai/ha, 0 to 100 scale, 0 no effect, 100 complete control, read-out: Foxtail, Giant plant response rating
# Summary of the method: as §2
# [10] = system: barnyardgrass (Echinochloa crus-galli); assay: as above; conditions: Echinochloa crus-galli, post-emergence, 240 h, 0 to 100 scale, 0 no effect, 100 complete control, read-out: Barnyardgrass plant response rating; for pest or weed control at 31 g/ha: 31 g ai/ha; for pest or weed control at 125 g/ha: 125 g ai/ha
# Summary of the method: as §2
# [11] = system: ryegrass, It. (Italian ryegrass, Lolium multiflorum); assay: as above; conditions: for Plant response rating (0 to 100 scale), Ryegrass, It.: 31 g ai/ha, 0 is no effect, 100 is complete control; for pest or weed control at 125 g/ha: Lolium multiflorum, post-emergence, 240 h, 125 g ai/ha, 0 to 100 scale, 0 no effect, 100 complete control, read-out: Ryegrass, It. plant response rating
# Summary of the method: as §2
# [12] = system: galium (catchweed bedstraw, Galium aparine); assay: as above; conditions: for Plant response rating (0 to 100 scale), Galium: 31 g ai/ha, 0 is no effect, 100 is complete control; for pest or weed control at 125 g/ha: Galium, post-emergence, 240 h, 125 g ai/ha, 0 to 100 scale, 0 no effect, 100 complete control, read-out: Galium plant response rating
# Summary of the method: as §2
# [13] = system: pigweed (Amaranthus retroflexus); assay: Test A preemergence, directed soil spray, visual injury rating; conditions: Amaranthus retroflexus, pre-emergence, 240 h, 0 is no effect, 100 is complete control, read-out: Plant response rating (0 to 100 scale), Pigweed; for pest or weed control at 31 g/ha: 31 g ai/ha; for pest or weed control at 125 g/ha: 125 g ai/ha
# Summary of the method: as §2
# [14] = system: ragweed (common ragweed, Ambrosia elatior); assay: as above; conditions: Ambrosia artemisiifolia, pre-emergence, 240 h, 0 is no effect, 100 is complete control, read-out: Plant response rating (0 to 100 scale), Ragweed; for pest or weed control at 31 g/ha: 31 g ai/ha; for pest or weed control at 125 g/ha: 125 g ai/ha
# Summary of the method: as §2
# [15] = system: kochia (Kochia scoparia); assay: as above; conditions: Bassia scoparia, pre-emergence, 240 h, 0 is no effect, 100 is complete control, read-out: Plant response rating (0 to 100 scale), Kochia; for pest or weed control at 31 g/ha: 31 g ai/ha; for pest or weed control at 125 g/ha: 125 g ai/ha
# Summary of the method: as §2
# [16] = system: foxtail, giant (giant foxtail, Setaria faberii); assay: as above; conditions: Setaria faberi, pre-emergence, 240 h, 0 is no effect, 100 is complete control, read-out: Plant response rating (0 to 100 scale), Foxtail, Giant; for pest or weed control at 31 g/ha: 31 g ai/ha; for pest or weed control at 125 g/ha: 125 g ai/ha
# Summary of the method: as §2
# [17] = system: barnyardgrass (Echinochloa crus-galli); assay: as above; conditions: Echinochloa crus-galli, pre-emergence, 240 h, 0 is no effect, 100 is complete control, read-out: Plant response rating (0 to 100 scale), Barnyardgrass; for pest or weed control at 31 g/ha: 31 g ai/ha; for pest or weed control at 125 g/ha: 125 g ai/ha
# Summary of the method: as §2
# [18] = system: ryegrass, It. (Italian ryegrass, Lolium multiflorum); assay: as above; conditions: Lolium multiflorum, pre-emergence, 240 h, 0 is no effect, 100 is complete control, read-out: Plant response rating (0 to 100 scale), Ryegrass, It.; for pest or weed control at 31 g/ha: 31 g ai/ha; for pest or weed control at 125 g/ha: 125 g ai/ha
# Summary of the method: as §2
SMILES,plant injury at 250 g/ha [1],pest or weed control at 250 g/ha [2],pest or weed control at 250 g/ha [3],pest or weed control at 250 g/ha [4],"Plant response rating (0 to 100 scale), Corn [5]",plant injury at 125 g/ha [5],"Plant response rating (0 to 100 scale), Pigweed [6]",pest or weed control at 125 g/ha [6],"Plant response rating (0 to 100 scale), Ragweed [7]",pest or weed control at 125 g/ha [7],"Plant response rating (0 to 100 scale), Kochia [8]",pest or weed control at 125 g/ha [8],"Plant response rating (0 to 100 scale), Foxtail, Giant [9]",pest or weed control at 125 g/ha [9],pest or weed control at 31 g/ha [10],pest or weed control at 125 g/ha [10],"Plant response rating (0 to 100 scale), Ryegrass, It. [11]",pest or weed control at 125 g/ha [11],"Plant response rating (0 to 100 scale), Galium [12]",pest or weed control at 125 g/ha [12],other results
"Cc1nn(C)c(=O)c(-c2ccc(F)c3ccoc23)c1O [Compound 68, 4-(4-fluoro-7-benzofuranyl)-5-hydroxy-2,6-dimethyl-3(2H)-pyridazinone]",0%,0%,0%,0%,0,0%,0,20%,0,10%,20,90%,0,20%,0%,10%,80,90%,60,90%,pest or weed control at 31 g/ha [13]: 0%; pest or weed control at 125 g/ha [13]: 80%; pest or weed control at 31 g/ha [14]: 30%; pest or weed control at 125 g/ha [14]: 50%; pest or weed control at 31 g/ha [15]: 30%; pest or weed control at 125 g/ha [15]: 60%; pest or weed control at 31 g/ha [16]: 0%; pest or weed control at 125 g/ha [16]: 20%; pest or weed control at 31 g/ha [17]: 0%; pest or weed control at 125 g/ha [17]: 20%; pest or weed control at 31 g/ha [18]: 20%; pest or weed control at 125 g/ha [18]: 80%
"COc1c(C)nn(C)c(=O)c1-c1ccc(F)c2ccoc12 [Compound 69, 4-(4-fluoro-7-benzofuranyl)-5-methoxy-2,6-dimethyl-3(2H)-pyridazinone]",0%,0%,0%,0%,0,0%,0,0%,0,0%,0,0%,0,0%,0%,0%,0,0%,0,0%,pest or weed control at 31 g/ha [13]: 0%; pest or weed control at 125 g/ha [13]: 0%; pest or weed control at 31 g/ha [14]: 0%; pest or weed control at 125 g/ha [14]: 0%; pest or weed control at 31 g/ha [15]: 0%; pest or weed control at 125 g/ha [15]: 0%; pest or weed control at 31 g/ha [16]: 0%; pest or weed control at 125 g/ha [16]: 0%; pest or weed control at 31 g/ha [17]: 0%; pest or weed control at 125 g/ha [17]: 0%; pest or weed control at 31 g/ha [18]: 0%; pest or weed control at 125 g/ha [18]: 0%
